Experiments:
[1] = target: T1, Bone morphogenetic protein 1 (Homo sapiens, UniProt P13497); experiment: Inhibition of C-terminal FLAG-6x-His epitope tagged and N-terminal human RAGE signal sequence tagged human BMP1 (23 to 721 amino acids) expressed in CHO-E1 cells pre-incubated for 10 mins before promyostatin peptide substrate addition and measured after 30 mins using 50 nM BMP1 by FRET based assay; format: cell-based
T1 sequence (P13497 whole entry): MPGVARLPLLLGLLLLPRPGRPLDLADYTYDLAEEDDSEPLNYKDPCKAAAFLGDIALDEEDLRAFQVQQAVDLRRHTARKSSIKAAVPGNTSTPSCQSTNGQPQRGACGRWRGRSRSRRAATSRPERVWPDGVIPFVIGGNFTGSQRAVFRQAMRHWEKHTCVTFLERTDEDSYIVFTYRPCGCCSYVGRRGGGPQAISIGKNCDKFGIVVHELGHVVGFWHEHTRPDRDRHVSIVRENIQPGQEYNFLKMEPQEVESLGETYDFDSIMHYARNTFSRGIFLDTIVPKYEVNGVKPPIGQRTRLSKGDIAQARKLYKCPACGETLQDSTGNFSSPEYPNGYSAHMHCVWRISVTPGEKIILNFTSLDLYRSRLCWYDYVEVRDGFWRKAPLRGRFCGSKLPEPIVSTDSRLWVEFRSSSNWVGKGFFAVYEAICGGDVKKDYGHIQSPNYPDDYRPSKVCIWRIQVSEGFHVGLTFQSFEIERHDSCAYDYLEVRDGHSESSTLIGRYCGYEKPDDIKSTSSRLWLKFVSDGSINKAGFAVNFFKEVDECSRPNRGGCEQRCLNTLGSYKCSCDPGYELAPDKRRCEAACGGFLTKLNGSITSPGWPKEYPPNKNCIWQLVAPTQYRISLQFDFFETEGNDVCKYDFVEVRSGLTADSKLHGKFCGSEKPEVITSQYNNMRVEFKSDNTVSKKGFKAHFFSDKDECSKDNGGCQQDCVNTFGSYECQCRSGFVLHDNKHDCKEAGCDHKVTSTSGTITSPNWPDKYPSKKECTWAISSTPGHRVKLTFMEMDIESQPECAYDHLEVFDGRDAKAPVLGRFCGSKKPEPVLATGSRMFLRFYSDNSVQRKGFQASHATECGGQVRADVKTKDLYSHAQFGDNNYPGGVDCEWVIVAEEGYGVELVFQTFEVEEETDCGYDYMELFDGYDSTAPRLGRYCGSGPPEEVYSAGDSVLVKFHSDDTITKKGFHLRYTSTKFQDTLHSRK

[2] = target: T1, Bone morphogenetic protein 1; experiment: Inhibition of C-terminal FLAG-6x-His epitope tagged and N-terminal human RAGE signal sequence tagged human BMP1 (23 to 721 amino acids) expressed in CHO-E1 cells pre-incubated for 10 mins before promyostatin peptide substrate addition and measured after 60 mins using 0.5 nM BMP1 by FRET based assay; format: cell-based
Tolloid-like protein 1 = Tolloid-like protein 1 (Homo sapiens, UniProt O43897, I156V/N221S/V284A); experiment: Inhibition of recombinant human TLL1 I156V/N221S/V284A mutant expressed in CHOE1A cells pre-incubated for 10 mins before promyostatin peptide substrate addition and measured after 60 mins by FRET based assay; format: cell-based
Sequence of Tolloid-like protein 1 (O43897 148-1013 I156V/N221S/V284A limits assumed): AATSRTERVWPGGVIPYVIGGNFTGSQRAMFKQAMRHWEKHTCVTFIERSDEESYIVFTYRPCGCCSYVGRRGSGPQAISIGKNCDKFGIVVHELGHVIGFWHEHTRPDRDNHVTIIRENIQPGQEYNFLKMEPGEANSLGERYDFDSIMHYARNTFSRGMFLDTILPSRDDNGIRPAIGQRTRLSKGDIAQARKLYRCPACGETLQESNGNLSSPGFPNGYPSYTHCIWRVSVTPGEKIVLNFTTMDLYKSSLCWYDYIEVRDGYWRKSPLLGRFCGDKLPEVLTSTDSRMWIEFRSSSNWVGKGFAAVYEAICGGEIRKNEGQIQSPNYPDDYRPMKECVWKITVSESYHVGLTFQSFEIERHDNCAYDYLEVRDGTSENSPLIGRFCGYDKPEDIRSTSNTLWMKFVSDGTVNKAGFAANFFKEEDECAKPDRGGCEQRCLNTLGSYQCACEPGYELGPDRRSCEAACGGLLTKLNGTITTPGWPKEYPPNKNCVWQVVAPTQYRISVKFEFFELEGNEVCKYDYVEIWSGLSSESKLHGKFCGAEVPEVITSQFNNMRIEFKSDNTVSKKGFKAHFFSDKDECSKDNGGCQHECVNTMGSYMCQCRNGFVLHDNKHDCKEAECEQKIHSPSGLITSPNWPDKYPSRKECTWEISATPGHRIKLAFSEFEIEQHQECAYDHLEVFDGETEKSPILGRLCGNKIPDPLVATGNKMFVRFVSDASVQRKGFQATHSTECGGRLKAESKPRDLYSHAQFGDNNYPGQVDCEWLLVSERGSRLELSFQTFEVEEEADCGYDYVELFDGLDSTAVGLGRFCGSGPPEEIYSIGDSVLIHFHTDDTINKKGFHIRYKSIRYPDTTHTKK

[3] = Reduction in mature collagen deposition levels in human cardiac fibroblasts incubated for 24 to 48 hrs by immunostaining based assay; format: functional
Outline: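 Human cardiac fibroblasts in 96-well plates were treated in ficoll crowding EMEM with 100 μM ascorbic acid and under 0.3% DMSO, for 24 to 48 hr at 37° C. Cells were fixed in −20° C methanol for 10 min. They were stained with anti-mature collagen I antibody, Alexa647 secondary antibody and Hoechst, then imaged on an Operetta system. Collagen intensity was normalised to nuclei count per field, and IC50 was fitted in GraphPad Prism.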

Tolloid-like protein 2 = target: T2, Tolloid-like protein 2 (Homo sapiens, UniProt Q9Y6L7); experiment: Inhibition of C-terminal Avi-6x-His epitope tagged and N-terminal human RAGE signal sequence tagged recombinant human TLL2 (26 to 1015 amino acids) expressed in CHOE1A cells incubated for 60 mins with promyostatin peptide substrate by FRET based assay; format: cell-based
T2 sequence (Q9Y6L7 whole entry): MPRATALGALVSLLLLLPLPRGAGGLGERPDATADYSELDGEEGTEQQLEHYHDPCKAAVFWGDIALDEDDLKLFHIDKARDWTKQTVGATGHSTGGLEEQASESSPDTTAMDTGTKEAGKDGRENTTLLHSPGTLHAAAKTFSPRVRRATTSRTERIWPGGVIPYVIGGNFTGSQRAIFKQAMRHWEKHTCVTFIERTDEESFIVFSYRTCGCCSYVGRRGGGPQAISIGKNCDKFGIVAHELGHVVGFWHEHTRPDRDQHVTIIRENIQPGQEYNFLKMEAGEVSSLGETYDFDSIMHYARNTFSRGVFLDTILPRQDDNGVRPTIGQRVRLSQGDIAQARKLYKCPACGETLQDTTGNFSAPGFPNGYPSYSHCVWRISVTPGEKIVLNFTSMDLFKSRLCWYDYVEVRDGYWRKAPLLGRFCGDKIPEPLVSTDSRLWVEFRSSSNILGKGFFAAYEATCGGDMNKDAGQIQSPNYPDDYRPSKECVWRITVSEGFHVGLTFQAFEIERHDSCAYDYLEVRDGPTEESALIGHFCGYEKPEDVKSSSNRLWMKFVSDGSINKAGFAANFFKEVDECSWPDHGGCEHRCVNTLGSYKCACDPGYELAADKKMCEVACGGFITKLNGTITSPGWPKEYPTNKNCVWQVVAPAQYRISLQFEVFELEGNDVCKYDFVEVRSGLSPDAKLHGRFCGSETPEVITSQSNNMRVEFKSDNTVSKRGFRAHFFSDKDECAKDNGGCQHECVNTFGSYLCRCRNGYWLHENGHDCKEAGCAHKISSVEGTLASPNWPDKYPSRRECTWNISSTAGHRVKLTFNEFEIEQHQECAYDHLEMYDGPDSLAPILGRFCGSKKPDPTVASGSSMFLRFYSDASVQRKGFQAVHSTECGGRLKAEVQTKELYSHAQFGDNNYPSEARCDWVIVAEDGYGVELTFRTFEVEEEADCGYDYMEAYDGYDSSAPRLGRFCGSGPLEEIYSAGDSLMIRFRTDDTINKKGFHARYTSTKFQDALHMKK

[4] = Reduction in PICP levels in human cardiac fibroblasts incubated for 24 to 48 hrs by ELISA; format: functional
Outline: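 Human cardiac fibroblasts (passage 6 or below) were seeded at 10,000 to 15,000 cells per well in 96-well plates. The next day they were treated in ficoll crowding EMEM with 100 μM ascorbic acid and under 0.3% DMSO, for 24 to 48 hr at 37° C. Procollagen I C-terminal propeptide in the medium was measured with a Quidel ELISA. IC50 came from fitting levels relative to untreated controls to a log(inhibitor)-response equation in GraphPad Prism.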

| SMILES | IC50 [1] | IC50 [2] | IC50 (Tolloid-like protein 1) | IC50 [3] | IC50 (Tolloid-like protein 2) | IC50 [4] |
| --- | --- | --- | --- | --- | --- | --- |
| CCOc1cc(-c2ccc(C(=O)NCNC(=O)[C@H](CCc3ccccc3)[C@@H](CC)N(O)C=O)o2)ccc1C(=O)N(CC(=O)O)CC(=O)O | < 200 nM | < 126 nM | < 398 nM | < 1000 nM | < 794 nM | < 3980 nM |
| CCCCC[C@@H](C(=O)NCNC(=O)c1ccc(-c2ccc(C(=O)N(CC(=O)O)CC(=O)O)c(OCC)c2)o1)[C@@H](CC)N(O)C=O | < 200 nM | < 126 nM | < 398 nM | < 1000 nM | < 794 nM | < 3980 nM |
| CCCCC[C@@H](C(=O)NCNC(=O)c1ccc(-c2cc(OCC)cc(C(=O)O)c2O)o1)[C@@H](CC)N(O)C=O | < 200 nM | < 126 nM | < 398 nM | < 1000 nM | < 794 nM | < 3980 nM |
| CCCCC[C@@H](C(=O)NCNC(=O)c1ccc(-c2cc(CP(=O)(O)O)cc(OCC)c2)o1)[C@@H](CC)N(O)C=O | < 200 nM | < 126 nM | < 398 nM | < 1000 nM | < 794 nM | < 3980 nM |
| CCOc1cc(-c2ccc(C(=O)NCNC(=O)[C@H](CCc3ccc(F)cc3F)[C@@H](CC)N(O)C=O)o2)ccc1C(=O)N[C@@H](CC(=O)O)C(=O)O | < 200 nM | < 126 nM | < 398 nM | < 1000 nM | < 794 nM | < 3980 nM |
| CCCCC[C@@H](C(=O)NCNC(=O)c1ccc(-c2ccc(C(=O)N[C@@H](CC(=O)O)C(=O)O)c(OCC)c2)o1)[C@@H](CC)N(O)C=O | < 200 nM | < 126 nM | < 398 nM | < 1000 nM | < 794 nM | < 3980 nM |
| CCCCC[C@@H](C(=O)NCNC(=O)c1ccc(-c2cc(OCC)cc(C(=O)N[C@@H](CCC(=O)O)C(=O)O)c2)o1)[C@@H](CC)N(O)C=O | < 200 nM | < 126 nM | < 398 nM | < 1000 nM | < 794 nM | < 3980 nM |
| CCCCC[C@@H](C(=O)NCNC(=O)c1ccc(-c2ccc(C(=O)NCP(=O)(O)O)c(OCC)c2)o1)[C@@H](CC)N(O)C=O | < 200 nM | < 126 nM | < 398 nM | < 1000 nM | < 794 nM | < 3980 nM |
| CCCCC[C@@H](C(=O)NCNC(=O)c1ccc(-c2cc(O)c(C(=O)O)c(OCC)c2)o1)[C@@H](CC)N(O)C=O | < 200 nM | < 126 nM | < 398 nM | < 1000 nM | < 794 nM | < 3980 nM |
| CCCCC[C@@H](C(=O)NCNC(=O)c1ccc(-c2ccc(P(=O)(O)O)c(OCC)c2)o1)[C@@H](CC)N(O)C=O | < 200 nM | < 126 nM | < 398 nM | < 1000 nM | < 794 nM | < 3980 nM |
| CCCCC[C@@H](C(=O)NCNC(=O)c1ccc(-c2cc(OCC(=O)O)cc(C(=O)O)c2)o1)[C@@H](CC)N(O)C=O | < 200 nM | < 126 nM | < 398 nM | < 1000 nM | < 794 nM | < 3980 nM |
| CCCCC[C@@H](C(=O)NCNC(=O)c1ccc(-c2cc(OCC)cc(P(=O)(O)O)c2)o1)[C@@H](CC)N(O)C=O | < 200 nM | < 126 nM | < 398 nM | < 1000 nM | < 794 nM | < 3980 nM |
| CCCCC[C@@H](C(=O)NCNC(=O)c1ccc(-c2cc(OCC(=O)O)cc(C(=O)O)c2O)o1)[C@@H](CC)N(O)C=O | < 200 nM | < 126 nM | < 398 nM | < 1000 nM | < 794 nM | < 3980 nM |
| CCCCC[C@@H](C(=O)NCNC(=O)c1ccc(-c2cc(OCC)cc(C(=O)O)c2)o1)[C@@H](CC)N(O)C=O | < 200 nM | < 126 nM | < 398 nM | < 1000 nM | < 794 nM | < 3980 nM |
| CCCCC[C@@H](C(=O)NCNC(=O)c1ccc(-c2cc(OCC)cc(C(=O)N[C@@H](CC(=O)O)C(=O)OC(C)(C)C)c2)o1)[C@@H](CC)N(O)C=O | < 200 nM | < 126 nM | < 398 nM | < 1000 nM | < 794 nM | < 3980 nM |
| CCCCC[C@@H](C(=O)NCNC(=O)c1ccc(-c2ccc(C(=O)N[C@@H](CC(=O)O)C(=O)O)c(OCC(=O)O)c2)o1)[C@@H](CC)N(O)C=O | < 200 nM | < 126 nM | < 398 nM | < 1000 nM | < 794 nM | < 3980 nM |
| CCCCC[C@H](CN(O)C=O)C(=O)NCNC(=O)c1ccc(-c2cc(OC)cc(C(=O)NCCN)c2)o1 | < 200 nM | < 126 nM | < 398 nM |  | < 794 nM | < 3980 nM |
| CCCCC[C@@H](C(=O)NCNC(=O)c1ccc(-c2cc(OCC)cc(C(=O)NCP(=O)(O)O)c2)o1)[C@@H](CC)N(O)C=O | < 200 nM | < 126 nM | < 398 nM |  | < 794 nM | < 3980 nM |
| CCCCC[C@H](CN(O)C=O)C(=O)NCNC(=O)c1ccc(-c2cccc(C(=O)O)c2)o1 | < 200 nM | < 126 nM | < 398 nM |  | < 794 nM | < 3980 nM |
| CCCCC[C@@H](C(=O)NCNC(=O)c1ccc(-c2ccc(C(=O)N[C@@H](CCC(=O)O)C(=O)O)cc2)o1)[C@@H](CC)N(O)C=O | < 200 nM | < 126 nM | < 398 nM |  | < 794 nM | < 3980 nM |
| CCCCC[C@@H](C(=O)NCNC(=O)c1ccc(-c2ccc(CC(=O)O)cc2)o1)[C@@H](CC)N(O)C=O | < 200 nM | < 126 nM | < 398 nM |  | < 794 nM | < 3980 nM |

Source: ChEMBL document CHEMBL4476867, “Hydroxy formamide derivatives and their use” (2016)
